Measurements from the NIST ThermoML archive (doi:10.1016/j.jct.2005.03.004).

Settings: Liquid

CO [methanol]
Settings | vapor or sublimation pressure [kPa]
298.15 K | 16.97
303.15 K | 21.88
308.15 K | 27.96
313.15 K | 35.44
318.15 K | 44.54
323.15 K | 55.58
